Measured values from the supplement of paper PMC10307832.

How the values were obtained:
Experiment in all cases: relative viability (nuclei count vs DMSO), 5 days (fraction); higher = more cells survive
Obatoclax + Navitoclax = compound: COC1=CC(c2cc3ccccc3[nH]2)=N/C1=C\c1[nH]c(C)cc1C [Obatoclax] + CC1(C)CCC(c2ccc(Cl)cc2)=C(CN2CCN(c3ccc(C(=O)NS(=O)(=O)c4ccc(N[C@H](CCN5CCOCC5)CSc5ccccc5)c(S(=O)(=O)C(F)(F)F)c4)cc3)CC2)C1 [Navitoclax] (partner 0.5 µM)
Method in brief: (§1)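 Five library-drug doses in √10 steps were combined with a fixed anchor-drug dose, or a single drug was given alone, by pin tool to lung cancer cell lines in 1536-well plates the day after seeding. Nuclei were stained and counted after 5 days. Relative viability is the nuclei count in treated wells over that in vehicle wells, taken as the median of duplicate plates.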

[1] = compound: CC1=CC(=NN1)NC2=CC(=NC(=N2)/C=C/C3=CC=CC=C3)N4CCN(CC4)C + CC1(C)CCC(c2ccc(Cl)cc2)=C(CN2CCN(c3ccc(C(=O)NS(=O)(=O)c4ccc(N[C@H](CCN5CCOCC5)CSc5ccccc5)c(S(=O)(=O)C(F)(F)F)c4)cc3)CC2)C1 [Navitoclax] (partner 0.5 µM)
Method in brief: as §1

Bortezomib + Decitabine = compound: CC(C)C[C@H](NC(=O)[C@H](Cc1ccccc1)NC(=O)c1cnccn1)B(O)O [Bortezomib] + Nc1ncn([C@H]2C[C@H](O)[C@@H](CO)O2)c(=O)n1 [Decitabine] (partner 2 µM)
Method in brief: as §1

Bortezomib + Foretinib = compound: CC(C)C[C@H](NC(=O)[C@H](Cc1ccccc1)NC(=O)c1cnccn1)B(O)O [Bortezomib] + COc1cc2c(Oc3ccc(NC(=O)C4(C(=O)Nc5ccc(F)cc5)CC4)cc3F)ccnc2cc1OCCCN1CCOCC1 [Foretinib] (partner 0.25 µM)
Method in brief: as §1

Cell Line	relative viability (Obatoclax + Navitoclax; first compound 0.01 µM)	relative viability (Obatoclax + Navitoclax; first compound 0.03162 µM)	relative viability (Obatoclax + Navitoclax; first compound 0.1 µM)	relative viability (Obatoclax + Navitoclax; first compound 0.3162 µM)	relative viability (Obatoclax + Navitoclax; first compound 1 µM)	relative viability ([1]; first compound 0.08 µM)	relative viability ([1]; first compound 0.253 µM)	relative viability ([1]; first compound 0.8 µM)	relative viability ([1]; first compound 2.53 µM)	relative viability ([1]; first compound 8 µM)	relative viability (Bortezomib + Decitabine; first compound 0.0002 µM)	relative viability (Bortezomib + Decitabine; first compound 0.000632 µM)	relative viability (Bortezomib + Decitabine; first compound 0.002 µM)	relative viability (Bortezomib + Decitabine; first compound 0.006325 µM)	relative viability (Bortezomib + Decitabine; first compound 0.02 µM)	relative viability (Bortezomib + Foretinib; first compound 0.0002 µM)	relative viability (Bortezomib + Foretinib; first compound 0.000632 µM)	relative viability (Bortezomib + Foretinib; first compound 0.002 µM)	relative viability (Bortezomib + Foretinib; first compound 0.006325 µM)	relative viability (Bortezomib + Foretinib; first compound 0.02 µM)
HCC-44	0.923	0.803	0.989	0.911	1.05	0.967	1.01	0.965	0.912	0.436	0.965	0.965	0.961	0.953	0.258	–	–	–	–	–
HCC-78	0.81	0.807	–	0.575	0.668	0.799	0.918	0.823	0.568	0.126	0.703	0.744	0.644	0.615	0.291	0.505	0.577	0.492	0.432	0.254
HCC-366	0.969	1.03	1.05	0.988	1.01	1.07	1.19	0.989	0.371	0.0097	0.305	0.327	0.39	0.201	0.0383	0.917	0.889	1.01	0.627	0.0395
HCC-827	0.997	0.99	1.06	0.988	1	0.972	1.04	0.979	0.937	0.705	0.35	0.376	0.346	0.327	0.296	1.11	1.01	0.693	0.113	0.0926
HOP-62	1.06	1.01	1.01	0.989	0.932	0.903	1.27	1.03	1	0.124	0.232	0.204	0.223	0.106	0.0681	0.972	1.07	0.863	0.134	0.0751
IA-LM	0.852	0.855	0.666	0.065	0.0608	0.733	0.76	1.12	0.669	0.148	–	–	–	–	–	1.26	1.1	1.16	0.0393	0.0142
LC-2-ad	0.359	0.446	0.311	0.26	0.145	0.432	0.332	0.224	0.0861	0.0584	0.73	0.81	0.931	0.516	0.225	0.913	0.899	0.814	0.244	0.203
LCLC-97TM1	0.38	0.439	0.387	0.346	0.474	0.492	0.781	0.294	0.201	0.106	0.245	0.238	0.21	0.0935	0.0627	0.906	0.929	0.721	0.242	0.151
